We go through seven molecules from patent US20150038438A1, “ANTIBACTERIAL COMPOUNDS AND METHODS FOR USE” (PTC THERAPEUTICS, INC., priority 2011, published 2015).

Broadly, the MIC is the lowest concentration found to suppress growth.

Holding throughout (test): Antibacterial activity, microbroth dilution method (MIC)
(In general: In broth dilution the organism is exposed to a series of concentrations in liquid medium.)

Test [1] concerns Gram-positive Staphylococcus aureus (S. aureus) 29213. In kind it is cell-based. Conditions: Staphylococcus aureus, Gram-positive S. aureus 29213. The essentials:
(§1)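 Each strain is exposed to test compound in a microbroth dilution series; visible growth is scored macroscopically, and the lowest growth-free concentration is recorded as MIC in μg/mL.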

The subject of test [2] is super sensitive Gram-negative Escherichia coli (E. coli) BAS849. In kind it is cell-based. As to conditions: Escherichia coli; super sensitive Gram-negative E. coli BAS849; microbroth dilution; read-out: MIC, E. coli BAS849. The essentials:
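Broth microdilution; endpoint = no macroscopic growth; value = lowest inhibiting concn, μg/mL.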

Test [3] relates to control Gram-negative E. coli 25922 strain. Format: cell-based, Escherichia coli. Conditions: Escherichia coli. A digest of the protocol:
as §1

Converted amounts (≈) assume the structure as drawn.

Turning to `Cl.Cl.Cn1c(CNCCN)cc2cc3c(cc21)OCCc1c-3[nH]c(=O)c(C(=O)O)c1O` [Cpd 180, 10-(((2-aminoethyl)amino)methyl)-4-hydroxy-9-methyl-2-oxo-2,5,6,9-tetrahydro-1H-pyrido[2′,3′:4,5]oxepino[3,2-f]indole-3-carboxylic acid dihydrochloride], the MIC fell in the range of 12.5 to 150 µg/mL in test [1], 3.5 to 12.5 µg/mL in test [2] and 12.5 to 150 µg/mL in test [3].

Take `CNCCNCc1cc2cc3c(cc2n1C)OCCc1c-3[nH]c(=O)c(C(=O)O)c1O.Cl.Cl` [Cpd 181, 4-hydroxy-9-methyl-10-(((2-(methylamino)ethyl)amino)methyl)-2-oxo-2,5,6,9-tetrahydro-1H-pyrido[2′,3′:4,5]oxepino[3,2-f]indole-3-carboxylic acid dihydrochloride]: the MIC in test [1], in test [2] and in test [3] was 12.5 to 150 µg/mL throughout.

On to `CN(C)CCNCc1cc2cc3c(cc2n1C)OCCc1c-3[nH]c(=O)c(C(=O)O)c1O.Cl.Cl` [Cpd 182, 10-(((2-(dimethylamino)ethyl)amino)methyl)-4-hydroxy-9-methyl-2-oxo-2,5,6,9-tetrahydro-1H-pyrido[2′,3′:4,5]oxepino[3,2-f]indole-3-carboxylic acid dihydrochloride], for which the MIC in test [1] was in the range of 12.5 to 150 µg/mL; in test [2], 1 to 3.5 µg/mL; in test [3] it was 12.5 to 150 µg/mL.

`COCCNCc1cc2cc3c(cc2n1C)OCCc1c-3[nH]c(=O)c(C(=O)O)c1O.Cl` [Cpd 183, 4-hydroxy-10-(((2-methoxyethyl)amino)methyl)-9-methyl-2-oxo-2,5,6,9-tetrahydro-1H-pyrido[2′,3′:4,5]oxepino[3,2-f]indole-3-carboxylic acid hydrochloride]: the MIC is 12.5 to 150 µg/mL in test [1], < 1 µg/mL in test [2] and 1 to 3.5 µg/mL in test [3].

`COCC(C)NCc1cc2cc3c(cc2n1C)OCCc1c-3[nH]c(=O)c(C(=O)O)c1O.Cl` (stereo not drawn) [Cpd 184, 4-hydroxy-10-(((1-methoxypropan-2-yl)amino)methyl)-9-methyl-2-oxo-2,5,6,9-tetrahydro-1H-pyrido[2′,3′:4,5]oxepino[3,2-f]indole-3-carboxylic acid hydrochloride]: the MIC in test [1] is 12.5 to 150 µg/mL; in test [2] it was < 1 µg/mL; in test [3], 3.5 to 12.5 µg/mL.

As to `CN(C)c1ccc2c(c1)SCCc1c-2[nH]c(=O)c(C(=O)O)c1O` [Cpd 185, 9-(dimethylamino)-4-hydroxy-2-oxo-1,2,5,6-tetrahydrobenzo[2,3]thiepino[4,5-b]pyridine-3-carboxylic acid], the results for the MIC in test [1], in test [2] and in test [3] were 12.5 to 150 µg/mL (≈ 37.6 to 451 µM), < 1 µg/mL and 12.5 to 150 µg/mL (≈ 37.6 to 451 µM), respectively.

Consider `O=C(O)c1c(O)c2c([nH]c1=O)-c1ccc(N3CCCC3)cc1SCC2` [Cpd 186, 4-hydroxy-2-oxo-9-(pyrrolidin-1-yl)-1,2,5,6-tetrahydrobenzo[2,3]thiepino[4,5-b]pyridine-3-carboxylic acid], for which the MIC in test [1] was 3.5 to 12.5 µg/mL (≈ 9.77 to 34.9 µM); in test [2], < 1 µg/mL; in test [3], 12.5 to 150 µg/mL (≈ 34.9 to 419 µM).
